Results as given in ChEMBL document CHEMBL4346657, “Anticancer activity, dual prooxidant/antioxidant effect and apoptosis induction profile of new bichalcophene-5-carboxamidines” (Eur J Med Chem, 2019).
Calls of active or inactive are those of the source. No cut-off for these calls is given here.

Tests used:
WI-38 = assay: Cytotoxicity activity against human WI38 cells assessed as reduction in cell viability measured after 48 hrs by MTT assay; type: cell-based; conditions: WI-38, 48 h
MDA-MB-231 = assay: Antiproliferative activity against human MDA-MB-231/ATCC cells assessed as growth inhibition after 48 hrs by sulforhodamine B assay; type: functional; conditions: MDA-MB-231, 48 h
OVCAR-3 = assay: Antiproliferative activity against human OVCAR3 cells assessed as growth inhibition after 48 hrs by sulforhodamine B assay; type: functional; conditions: OVCAR-3, 48 h
MCF7 = assay: Antiproliferative activity against human MCF7 cells assessed as growth inhibition after 48 hrs by sulforhodamine B assay; type: functional; conditions: MCF7, 48 h
[1] = tested on: Panel NCI-60 (60 carcinoma cell lines); assay: Antiproliferative activity against human NCI60 cells assessed as growth inhibition at 10 uM after 48 hrs by sulforhodamine B assay; type: functional; conditions: read-out: GI
DU-145 = assay: Antiproliferative activity against human DU145 cells assessed as growth inhibition after 48 hrs by sulforhodamine B assay; type: functional; conditions: DU-145, 48 h
SN12C = assay: Antiproliferative activity against human SN12C cells assessed as growth inhibition after 48 hrs by sulforhodamine B assay; type: functional
RXF 393 = assay: Antiproliferative activity against human RXF393 cells assessed as growth inhibition after 48 hrs by sulforhodamine B assay; type: functional; conditions: RXF 393, 48 h
CAKI-1 = assay: Antiproliferative activity against human CAKI-1 cells assessed as growth inhibition after 48 hrs by sulforhodamine B assay; type: functional; conditions: CAKI-1, 48 h
SK-OV-3 = assay: Antiproliferative activity against human SKOV3 cells assessed as growth inhibition after 48 hrs by sulforhodamine B assay; type: functional; conditions: SK-OV-3, 48 h
OVCAR-5 = assay: Antiproliferative activity against human OVCAR5 cells assessed as growth inhibition after 48 hrs by sulforhodamine B assay; type: functional; conditions: OVCAR-5, 48 h
UACC-62 = assay: Antiproliferative activity against human UACC62 cells assessed as growth inhibition after 48 hrs by sulforhodamine B assay; type: functional; conditions: UACC-62, 48 h
UACC-257 = assay: Antiproliferative activity against human UACC257 cells assessed as growth inhibition after 48 hrs by sulforhodamine B assay; type: functional; conditions: UACC-257, 48 h
SK-MEL-2 = assay: Antiproliferative activity against human SK-MEL-2 cells assessed as growth inhibition after 48 hrs by sulforhodamine B assay; type: functional; conditions: SK-MEL-2, 48 h
M14 = assay: Antiproliferative activity against human M14 cells assessed as growth inhibition after 48 hrs by sulforhodamine B assay; type: functional; conditions: M14, 48 h
Malme-3M = assay: Antiproliferative activity against human MALME-3M cells assessed as growth inhibition after 48 hrs by sulforhodamine B assay; type: functional
LOX IMVI = assay: Antiproliferative activity against human LOXIMVI cells assessed as growth inhibition after 48 hrs by sulforhodamine B assay; type: functional
SNB-75 = assay: Antiproliferative activity against human SNB75 cells assessed as growth inhibition after 48 hrs by sulforhodamine B assay; type: functional; conditions: SNB-75, 48 h
SNB-19 = assay: Antiproliferative activity against human SNB19 cells assessed as growth inhibition after 48 hrs by sulforhodamine B assay; type: functional; conditions: SNB-19, 48 h
SF-539 = assay: Antiproliferative activity against human SF539 cells assessed as growth inhibition after 48 hrs by sulforhodamine B assay; type: functional; conditions: SF-539, 48 h
SF-268 = assay: Antiproliferative activity against human SF268 cells assessed as growth inhibition after 48 hrs by sulforhodamine B assay; type: functional; conditions: SF-268, 48 h
NCI-H460 = assay: Antiproliferative activity against human NCI-H460 cells assessed as growth inhibition after 48 hrs by sulforhodamine B assay; type: functional; conditions: NCI-H460, 48 h
NCI-H23 = assay: Antiproliferative activity against human NCI-H23 cells assessed as growth inhibition after 48 hrs by sulforhodamine B assay; type: functional; conditions: NCI-H23, 48 h
HOP-92 = assay: Antiproliferative activity against human HOP92 cells assessed as growth inhibition after 48 hrs by sulforhodamine B assay; type: functional; conditions: HOP-92, 48 h
HOP-62 = assay: Antiproliferative activity against human HOP62 cells assessed as growth inhibition after 48 hrs by sulforhodamine B assay; type: functional; conditions: HOP-62, 48 h
SR = assay: Antiproliferative activity against human SR cells assessed as growth inhibition after 48 hrs by sulforhodamine B assay; type: functional
RPMI-8226 = assay: Antiproliferative activity against human RPMI8226 cells assessed as growth inhibition after 48 hrs by sulforhodamine B assay; type: functional; conditions: RPMI-8226, 48 h
CCRF-CEM = assay: Antiproliferative activity against human CCRF-CEM cells assessed as growth inhibition after 48 hrs by sulforhodamine B assay; type: functional
Hs-578T = assay: Antiproliferative activity against human Hs578T cells assessed as growth inhibition after 48 hrs by sulforhodamine B assay; type: functional
T47D = assay: Antiproliferative activity against human T47D cells assessed as growth inhibition after 48 hrs by sulforhodamine B assay; type: functional
[2] = Haemolytic activity in human erythrocytes assessed as induction of hemolysis at 10 mM after 30 mins relative to H202; type: cell-based, Erythrocyte; conditions: read-out: Activity
[3] = Haemolytic activity in human erythrocytes assessed as induction of hemolysis at 2.5 mM after 30 mins relative to H202; type: cell-based, Erythrocyte; conditions: erythrocytes, read-out: Activity
Erythrocyte = assay: Haemolytic activity in human erythrocytes assessed as induction of hemolysis at 1.25 mM after 30 mins relative to H202; type: cell-based; conditions: erythrocyte, 0.5 h, 1250 µM
[4] = Antioxidant activity assessed as hydroxyl radical scavenging activity after 1 hr by salicylic acid-based Fenton reaction assay; type: functional
[5] = Pro-oxidant activity assessed as increase in bleomycin-Fe2+ induced calf thymus DNA damage at 2 mM after 1 hr by thiobarbituric acid based absorbance analysis
HCT-116 [6] = assay: Induction of apoptosis in human HCT116 cells assessed as increase in caspase 3 mRNA expression at 100 nM after 6 hrs hrs by SYBR green dye-based qRT-PCR analysis relative to control; type: functional
HCT-116 [7] = assay: Induction of apoptosis in human HCT116 cells assessed as increase in p53 mRNA expression at 100 nM after 6 hrs hrs by SYBR green dye-based qRT-PCR analysis relative to control; type: functional

Structure (SMILES)	IC50 (WI-38)	GI50 (MDA-MB-231)	GI50 (OVCAR-3)	GI50 (MCF7)	inhibition of growth at 10 µM [1]	GI50 (DU-145)	GI50 (SN12C)	GI50 (RXF 393)	GI50 (CAKI-1)	GI50 (SK-OV-3)	GI50 (OVCAR-5)	GI50 (UACC-62)	GI50 (UACC-257)	GI50 (M14)	GI50 (Malme-3M)	GI50 (LOX IMVI)	GI50 (SNB-75)	GI50 (SNB-19)	GI50 (SF-539)	GI50 (SF-268)	also measured
N=C(N)c1ccc(-c2ccc(-c3ccc(Cl)cc3)s2)s1	69.2 µM	1800 nM	1740 nM	1290 nM	-57.2%	1620 nM	1910 nM	1710 nM	1610 nM	1.7 µM	1580 nM	1800 nM	2780 nM	1710 nM	1810 nM	1310 nM	1490 nM	1920 nM	1630 nM	1770 nM	GI50 (SK-MEL-2): 2380 nM; GI50 (NCI-H460): 1510 nM; GI50 (NCI-H23): 1620 nM; GI50 (HOP-92): 1810 nM; GI50 (HOP-62): 1750 nM; GI50 (SR): 320 nM; GI50 (RPMI-8226): 2040 nM; GI50 (CCRF-CEM): 1840 nM; GI50 (Hs-578T): 2140 nM; GI50 (T47D): 1550 nM; hemolysis at 0.5 h, 10000 µM [2]: 81.7%; hemolysis at 0.5 h, 2500 µM [3]: 14.3%; Activity (Erythrocyte): Non-Toxic; Activity [4]: Active; Activity [5]: Active; fold change (FC) (HCT-116 [6]): 3; fold change (FC) (HCT-116 [7]): 0.89
COc1ccc(-c2ccc(-c3ccc(C(=N)N)o3)o2)cc1	72.9 µM	1900 nM	920 nM	330 nM	86.4%	1910 nM	2020 nM	2120 nM	1750 nM	5.63 µM	2430 nM	1290 nM	11100 nM	1470 nM	3970 nM	1480 nM	1470 nM	1990 nM	1890 nM	2040 nM	GI50 (SK-MEL-2): 5710 nM; GI50 (NCI-H460): 1170 nM; GI50 (NCI-H23): 4340 nM; GI50 (HOP-62): 1500 nM; GI50 (SR): 420 nM; GI50 (RPMI-8226): 2680 nM; GI50 (CCRF-CEM): 1840 nM; GI50 (Hs-578T): 4330 nM; GI50 (T47D): 1530 nM; hemolysis at 0.5 h, 10000 µM [2]: 71.7%; hemolysis at 0.5 h, 2500 µM [3]: 8.1%; Activity (Erythrocyte): Non-Toxic; Activity [4]: Active; Activity [5]: Active; fold change (FC) (HCT-116 [6]): 2.67; fold change (FC) (HCT-116 [7]): 0.94
N=C(N)c1ccc(-c2ccc(-c3ccc(F)cc3)o2)o1	10.6 µM	1570 nM	1840 nM	680 nM	83.8%	1800 nM	1800 nM	1600 nM	1710 nM	2.32 µM	1660 nM	1740 nM	1980 nM	1230 nM	1630 nM	1550 nM	1550 nM	1730 nM	1630 nM	1920 nM	GI50 (SK-MEL-2): 1760 nM; GI50 (NCI-H460): 1760 nM; GI50 (NCI-H23): 1930 nM; GI50 (HOP-92): 1210 nM; GI50 (HOP-62): 1600 nM; GI50 (RPMI-8226): 2480 nM; GI50 (CCRF-CEM): 1840 nM; GI50 (Hs-578T): 1950 nM; hemolysis at 0.5 h, 10000 µM [2]: 90%; hemolysis at 0.5 h, 2500 µM [3]: 17.6%; Activity (Erythrocyte): Non-Toxic; Activity [4]: Active; Activity [5]: Active; fold change (FC) (HCT-116 [6]): 3.88; fold change (FC) (HCT-116 [7]): 0.96
N=C(N)c1ccc(-c2ccc(-c3ccc(F)cc3)s2)s1	13.3 µM	1740 nM	1780 nM	1150 nM	-25.8%	1720 nM	1980 nM	1750 nM	1680 nM	1.8 µM	1700 nM	1940 nM	2190 nM	1890 nM	1810 nM	1620 nM	1480 nM	1970 nM	1670 nM	1690 nM	GI50 (SK-MEL-2): 1810 nM; GI50 (NCI-H460): 1890 nM; GI50 (NCI-H23): 1800 nM; GI50 (HOP-62): 1640 nM; GI50 (SR): 1170 nM; GI50 (RPMI-8226): 2100 nM; GI50 (CCRF-CEM): 1850 nM; GI50 (Hs-578T): 2190 nM; GI50 (T47D): 1740 nM; hemolysis at 0.5 h, 10000 µM [2]: 93.3%; hemolysis at 0.5 h, 2500 µM [3]: 14%; Activity (Erythrocyte): Non-Toxic; Activity [4]: Active; Activity [5]: Active; fold change (FC) (HCT-116 [6]): 3.71; fold change (FC) (HCT-116 [7]): 1.06
COc1cc(-c2ccc(-c3ccc(C(=N)N)s3)s2)cc(OC)c1OC	65.7 µM	1880 nM	2220 nM	1660 nM	73.5%	2320 nM	1610 nM	1660 nM	1700 nM	5.15 µM	1470 nM	1700 nM	2220 nM	1700 nM	1740 nM	1610 nM	1500 nM	2160 nM	1580 nM	1740 nM	GI50 (NCI-H460): 1990 nM; GI50 (NCI-H23): 2610 nM; GI50 (HOP-92): 1140 nM; GI50 (HOP-62): 1970 nM; GI50 (SR): 1830 nM; GI50 (RPMI-8226): 2460 nM; GI50 (CCRF-CEM): 3420 nM; GI50 (T47D): 1700 nM; hemolysis at 0.5 h, 10000 µM [2]: 79.7%; hemolysis at 0.5 h, 2500 µM [3]: 11.3%; Activity (Erythrocyte): Non-Toxic; Activity [4]: Active; Activity [5]: Active; fold change (FC) (HCT-116 [6]): 2.67; fold change (FC) (HCT-116 [7]): 1.01
N=C(N)c1ccc(-c2ccc(-c3ccccc3)o2)o1	68.7 µM	2040 nM	3130 nM	1680 nM	68.2%	3300 nM	3120 nM	2330 nM	3400 nM	4.3 µM	2700 nM	1930 nM	2520 nM	1620 nM	1750 nM	1700 nM	1600 nM	3010 nM	1950 nM	2980 nM	GI50 (SK-MEL-2): 2250 nM; GI50 (NCI-H460): 2450 nM; GI50 (NCI-H23): 5780 nM; GI50 (HOP-92): 1850 nM; GI50 (HOP-62): 3590 nM; GI50 (RPMI-8226): 2890 nM; GI50 (CCRF-CEM): 3580 nM; GI50 (Hs-578T): 3810 nM; hemolysis at 0.5 h, 10000 µM [2]: 66.7%; hemolysis at 0.5 h, 2500 µM [3]: 7%; Activity (Erythrocyte): Non-Toxic; Activity [4]: Active; Activity [5]: Active; fold change (FC) (HCT-116 [6]): 2.33; fold change (FC) (HCT-116 [7]): 0.95
